# Results published in patent publication US11084795B2, “CFTR regulators and methods of use thereof” (The Regents of the University of California, priority 2015, dated 2021).
# Target: human wildtype CFTR (Homo sapiens, UniProt P13569)
# Test: Fluorescence plate reader assay of iodide influx in FRT cells co-expressing CFTR and YFP halide sensor
# Conditions: not given
# human wildtype CFTR, sequence (P13569 whole entry): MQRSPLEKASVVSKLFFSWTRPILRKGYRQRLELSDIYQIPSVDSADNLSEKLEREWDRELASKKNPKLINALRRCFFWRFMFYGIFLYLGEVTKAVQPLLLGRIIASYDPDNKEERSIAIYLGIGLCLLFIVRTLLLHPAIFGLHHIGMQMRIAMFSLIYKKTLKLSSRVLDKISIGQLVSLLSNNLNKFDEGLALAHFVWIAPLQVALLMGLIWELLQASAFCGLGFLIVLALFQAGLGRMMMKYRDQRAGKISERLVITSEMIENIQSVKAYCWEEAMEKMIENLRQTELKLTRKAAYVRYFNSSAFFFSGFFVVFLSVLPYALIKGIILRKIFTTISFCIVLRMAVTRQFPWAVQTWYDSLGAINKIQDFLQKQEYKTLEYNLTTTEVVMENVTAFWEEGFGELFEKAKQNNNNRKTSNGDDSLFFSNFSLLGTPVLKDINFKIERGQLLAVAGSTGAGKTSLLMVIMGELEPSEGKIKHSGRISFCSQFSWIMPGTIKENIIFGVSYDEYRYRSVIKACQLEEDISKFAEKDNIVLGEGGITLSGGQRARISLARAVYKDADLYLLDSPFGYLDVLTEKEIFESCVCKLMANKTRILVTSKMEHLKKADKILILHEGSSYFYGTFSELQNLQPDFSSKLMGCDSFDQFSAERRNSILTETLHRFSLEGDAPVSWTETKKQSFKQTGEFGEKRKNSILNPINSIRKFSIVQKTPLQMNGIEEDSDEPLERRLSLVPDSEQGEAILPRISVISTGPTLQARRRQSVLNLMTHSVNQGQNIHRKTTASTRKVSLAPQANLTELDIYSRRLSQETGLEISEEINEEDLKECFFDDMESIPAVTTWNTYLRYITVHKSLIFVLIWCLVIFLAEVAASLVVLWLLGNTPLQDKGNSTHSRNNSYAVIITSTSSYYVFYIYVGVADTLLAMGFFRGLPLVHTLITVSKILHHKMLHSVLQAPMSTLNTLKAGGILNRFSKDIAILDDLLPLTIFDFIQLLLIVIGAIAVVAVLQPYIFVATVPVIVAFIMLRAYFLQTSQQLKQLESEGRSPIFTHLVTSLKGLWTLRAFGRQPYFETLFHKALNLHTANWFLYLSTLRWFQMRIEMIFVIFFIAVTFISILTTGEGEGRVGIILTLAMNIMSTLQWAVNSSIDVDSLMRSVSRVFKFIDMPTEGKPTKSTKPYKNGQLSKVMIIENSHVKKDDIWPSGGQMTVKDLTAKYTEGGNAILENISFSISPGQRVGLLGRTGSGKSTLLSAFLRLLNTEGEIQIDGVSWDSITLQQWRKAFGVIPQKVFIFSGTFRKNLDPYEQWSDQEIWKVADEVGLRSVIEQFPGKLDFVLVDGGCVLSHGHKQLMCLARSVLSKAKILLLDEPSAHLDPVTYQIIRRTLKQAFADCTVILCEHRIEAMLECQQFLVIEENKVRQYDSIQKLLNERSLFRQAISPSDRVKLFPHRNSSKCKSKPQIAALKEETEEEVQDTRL
SMILES,EC50 [µM],CFTR activity of commercial analogs relative to CFTRact-J027
"Nc1ccc([N+](=O)[O-])cc1-c1nc2ccccc2n(Cc2cccc(Br)c2)c1=O [CFTRact-J103, 3-(2-Amino-5-nitrophenyl)-1-(3-bromobenzyl)quinoxalin-2(1H)-one]",1.2,
"Cc1ccc2c(c1)nc(-c1cc(I)ccc1N)c(=O)n2Cc1ccccc1 [CFTRact-J141, 3-(2-Amino-5-iodophenyl)-1-benzyl-6-methylquinoxalin-2(1H)-one]",0.47,
"Cc1ccc2c(c1)nc(-c1c(N)cccc1Br)c(=O)n2Cc1ccccc1 [CFTRact-J139, 3-(2-Amino-6-bromophenyl)-1-benzyl-6-methylquinoxalin-2(1H)-one]",0.65,
"Nc1ccc([N+](=O)[O-])cc1-c1nc2cccc3c2n(c1=O)C(c1ccccc1)CO3 (stereo not shown) [Compound 20, 6-(2-Amino-5-nitrophenyl)-3-phenyl-2,3-dihydro-5H-[1,4]oxazino[4,3,2-de]quinoxalin-5-one]",> 10,
CC(=O)Nc1ccc(C)cc1-c1nc2ccccc2n(Cc2ccccc2)c1=O [CFTRact-J060],> 25,
"N#Cc1ccccc1Cn1c(=O)c(-c2cc(I)ccc2N)nc2ccccc21 [CFTRact-J144, 3-(2-Amino-5-iodophenyl)-1-(2-cyanobenzyl)quinoxalin-2(1H)-one]",> 25,
"Nc1cccc(Br)c1-c1nc2ccccc2n(Cc2ccccc2)c1=O [CFTRact-J142, 3-(2-Amino-6-bromophenyl)-1-benzylquinoxalin-2(1H)-one]",1.5,
"Cc1ccc2c(c1)nc(-c1cc(F)ccc1N)c(=O)n2Cc1ccccc1 [CFTRact-J140, 3-(2-Amino-5-fluorophenyl)-1-benzyl-6-methylquinoxalin-2(1H)-one]",0.7,
"Nc1ccc([N+](=O)[O-])cc1-c1nc2cc(F)ccc2n(Cc2ccccc2)c1=O [CFTRact-J105, 3-(2-Amino-5-nitrophenyl)-1-benzyl-6-fluoroquinoxalin-2(1H)-one]",0.53,
CC(=O)Nc1ccccc1-c1nc2ccccc2n(CCc2ccccc2)c1=O [CFTRact-J061],~20,
"O=C(O)c1ccc([N+](=O)[O-])c(-c2nc3ccccc3n(Cc3ccccc3)c2=O)c1 [Compound 1b, 3-(4-Benzyl-3-oxo-3,4-dihydroquinoxalin-2-yl)-4-nitrobenzoic acid]",> 10,
Cn1c(=O)c(-c2cc([N+](=O)[O-])ccc2N)nc2ccccc21 [CFTRact-J052],,greatly reduced activity
"CC(=O)Nc1ccc([N+](=O)[O-])cc1-c1nc2ccccc2n(Cc2ccccc2)c1=O [CFTRact-J109, N-(2-(4-Benzyl-3-oxo-3,4-dihydroquinoxalin-2-yl)-4-nitrophenyl)-acetamide]",1.5,
"Nc1ccc([N+](=O)[O-])cc1-c1nc2ccccc2n(Cc2ccccc2Br)c1=O [CFTRact-J104, 3-(2-Amino-5-nitrophenyl)-1-(2-bromobenzyl)quinoxalin-2(1H)-one]",7.3,
"Nc1ccc(C(=O)O)cc1-c1nc2ccccc2n(Cc2ccccc2)c1=O [Compound 1k, 4-Amino-3-(4-benzyl-3-oxo-3,4-dihydroquinoxalin-2-yl)benzoic acid]",> 10,
"COC(=O)c1ccc(N)c(-c2nc3ccccc3n(Cc3ccccc3)c2=O)c1 [Compound 1j, Methyl 4-amino-3-(4-benzyl-3-oxo-3,4-dihydroquinoxalin-2-yl)benzoate]",1,
CC(=O)Nc1ccccc1-c1nc2ccccc2n(Cc2cccc(Br)c2)c1=O [CFTRact-J059],~19,

# Further lines, results first:
EC50 [µM],CFTR activity of commercial analogs relative to CFTRact-J027,SMILES
> 10,,"Cn1c(=O)c(-c2cccc([N+](=O)[O-])c2)nc2ccccc21 [Compound 3b, 1-Methyl-3-(3-nitrophenyl)quinoxalin-2(1H)-one]"
> 10,,"O=c1c(-c2cccc([N+](=O)[O-])c2)nc2cc(F)c(F)cc2n1Cc1ccccc1 [Compound 2g, 1-Benzyl-6,7-difluoro-3-(3-nitrophenyl)quinoxalin-2(1H)-one]"
> 10,,"O=c1[nH]c2ccccc2nc1-c1cccc([N+](=O)[O-])c1 [Compound 3a, 3-(3-Nitrophenyl)quinoxalin-2(1H)-one]"
> 10,,"O=c1c(-c2cccc([N+](=O)[O-])c2)nc2cc(Cl)c(Cl)cc2n1Cc1ccccc1 [Compound 2d, 1-Benzyl-6,7-dichloro-3-(3-nitrophenyl)quinoxalin-2(1H)-one]"
> 10,,"Cc1cc2nc(-c3cccc([N+](=O)[O-])c3)c(=O)n(Cc3ccccc3)c2cc1C [Compound 2i, 1-Benzyl-6,7-dimethyl-3-(3-nitrophenyl)quinoxalin-2(1H)-one]"

# Same assay, conditions: plate reader assay
row,SMILES,"EC50, variation in the quinoxalinone core"
1,"O=c1c(-c2cccc([N+](=O)[O-])c2)nc2ccc(Br)cc2n1Cc1ccccc1 [Compound 2e, 1-Benzyl-7-bromo-3-(3-nitrophenyl)quinoxalin-2(1H)-one]",EC50 = Inactive

# Same assay, conditions: read-out: EC50, constrained ring analogs; plate reader assay
row,EC50 [µM],SMILES
1,0.82,"CC(=O)Nc1ccc([N+](=O)[O-])cc1-c1nc2cccc3c2n(c1=O)CCO3 [Compound 16, N-(4-nitro-2-(5-oxo-2,3-dihydro-5H-[1,4]oxazino[4,3,2-de]quinoxalin-6-yl)phenyl) acetamide]"

# Same assay, conditions: read-out: EC50, variation in the 3-aryl ring; plate reader assay
row,EC50 [µM],SMILES
1,1,"O=c1c(-c2ccc(C(F)(F)F)cc2)nc2ccccc2n1Cc1ccccc1 [Compound 1f, 1-Benzyl-3-(4-(trifluoromethyl)phenyl)quinoxalin-2(1H)-one]"
2,1,"O=c1c(-c2ccc([N+](=O)[O-])cc2)nc2ccccc2n1Cc1ccccc1 [Compound 1e, 1-Benzyl-3-(4-nitrophenyl)quinoxalin-2(1H)-one]"
3,1,"O=c1c(-c2ccccc2[N+](=O)[O-])nc2ccccc2n1Cc1ccccc1 [Compound 1d, 1-Benzyl-3-(2-nitrophenyl)quinoxalin-2(1H)-one]"
4,0.55,"COC(=O)c1ccc(N)c(-c2nc3ccccc3n(Cc3ccccc3)c2=O)c1 [Compound 1j, Methyl 4-amino-3-(4-benzyl-3-oxo-3,4-dihydroquinoxalin-2-yl)benzoate]"
5,5,"O=c1c(-c2ccccc2)nc2ccccc2n1Cc1ccccc1 [Compound 1h, 1-Benzyl-3-phenylquinoxalin-2(1H)-one]"

row,SMILES,EC50 [µM]
1,"O=c1c(-c2ccc(F)c([N+](=O)[O-])c2)nc2ccccc2n1Cc1ccccc1 [Compound 1i, 1-Benzyl-3-(4-fluoro-3-nitrophenyl)quinoxalin-2(1H)-one]",0.69
2,"O=c1c(-c2cccc(Br)c2)nc2ccccc2n1Cc1ccccc1 [Compound 1g, 1-Benzyl-3-(3-bromophenyl)quinoxalin-2(1H)-one]",0.33

# Same assay, conditions: read-out: EC50, variation in the N1-substituent; plate reader assay
row,EC50 [µM],SMILES
1,0.065,"CCn1c(=O)c(-c2cccc([N+](=O)[O-])c2)nc2ccccc21 [Compound 3c, 1-Ethyl-3-(3-nitrophenyl)quinoxalin-2(1H)-one]"
2,0.052,"O=c1c(-c2cccc([N+](=O)[O-])c2)nc2ccccc2n1Cc1ccccn1 [Compound 3h, 3-(3-Nitrophenyl)-1-(pyridin-2-ylmethyl)quinoxalin-2(1H)-one]"
3,0.177,"CCCn1c(=O)c(-c2cccc([N+](=O)[O-])c2)nc2ccccc21 [Compound 3d, 1-Propyl-3-(3-nitrophenyl)quinoxalin-2(1H)-one]"

# Same assay, conditions: read-out: EC50, variation in the quinoxalinone core; plate reader assay
row,EC50 [µM],SMILES
1,0.76,"O=c1c(-c2cccc([N+](=O)[O-])c2)nc2ccc(Cl)cc2n1Cc1ccccc1 [Compound 2a, 1-Benzyl-7-chloro-3-(3-nitrophenyl)quinoxalin-2(1H)-one]"
2,0.07,"O=c1c(-c2cccc([N+](=O)[O-])c2)nc2cc(Cl)ccc2n1Cc1ccccc1 [Compound 2b, 1-Benzyl-6-chloro-3-(3-nitrophenyl)quinoxalin-2(1H)-one]"

row,SMILES,EC50 [µM]
1,"O=c1c(-c2cccc([N+](=O)[O-])c2)nc2cc(Br)ccc2n1Cc1ccccc1 [Compound 2f, 1-Benzyl-6-bromo-3-(3-nitrophenyl)quinoxalin-2(1H)-one]",0.063
